Results on 12 compounds are retold here after PubChem BioAssay (NCI).

Molecules are shown by their SMILES.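 How tested: cells in 96-well plates exposed to compound for 48 hours at five concentrations. At the GI50, growth is halved. TGI is the concentration that stops growth completely.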

For one assay, the system named is CCRF-CEM leukemia. The assay is described as follows: DTP human tumour cell line panel, 48 h.
With `Cc1nc2cccc([N+](=O)[O-])c2c(NCCCN(C)C)c1C`, the TGI (commonly the concentration giving total growth inhibition) was above 75.2 µM.
For `Cn1c(N2NC(=O)C(N=Nc3ccc(S(N)(=O)=O)cc3)C2=O)nc(-c2ccco2)c(C#N)c1=O` (stereo not drawn), the GI50 (usually the concentration giving 50% growth inhibition) is 8.63 µM and the TGI was above 50 µM.
The like results for `NCC(=O)NS(=O)(=O)OC[C@H]1O[C@@H](n2cnc3c(N)ncnc32)[C@H](O)[C@@H]1O` were, in that order, 3.71 µM and above 100 µM.
On to `Cc1c(C(=O)N/N=C/c2ccc(Cl)cc2)nnn1-c1ccnc2c(C(F)(F)F)cccc12`, for which the GI50 is 14.8 µM and the concentration for total growth inhibition (TGI) is above 100 µM.
The matching figures for `N#C/C(=C1C=C/C(=N/O)C(Br)=C/1)c1ccccc1`: 0.661 µM and 8.91 µM.
The matching figures for `CN(C)CCNc1cc(-c2ccccc2)nc2ccccc12`: 4.43 µM and 37.3 µM.
The matching figures for `COc1cccc(/C=N/NC(=O)c2ccccc2Nc2ccnc(C(F)(F)F)c2)c1O`: 0.115 µM and 2.02 µM.
`CC[CH2][Pb]([CH2]CC)([CH2]CC)[O]C(=O)C(F)(F)F`: the 50% growth inhibitory concentration (GI50) was 0.0906 µM and the TGI came out at 0.775 µM.
Compound `CCOC(=O)CCc1cc(=O)oc2cc(O)cc(O)c12` returned a TGI above 100 µM.
As to `COC(=O)c1cc2c3ccccc3[nH]c2c2ncccc12`, the GI50 was 32.4 µM and the TGI was above 100 µM.
On to `CNC(=O)OCc1c(COC(=O)NC)c(-c2ccc(Cl)c(Cl)c2)n2c1SCC2`, for which the TGI came out at 64.9 µM.
On to `COc1ccc2c(c1)c(-c1nc(-c3cn(C)c4ncccc34)cs1)cn2CCCN1CCCCC1`, for which the GI50 was 2.05 µM and the TGI was 4.04 µM.

For a further assay, the system named is HOP-62 NSCLC. As to the kind of experiment: DTP human tumour cell line panel, 48 h.
Regarding `Cc1nc2cccc([N+](=O)[O-])c2c(NCCCN(C)C)c1C`, the TGI was above 69.2 µM.
In the case of `Cn1c(N2NC(=O)C(N=Nc3ccc(S(N)(=O)=O)cc3)C2=O)nc(-c2ccco2)c(C#N)c1=O` (stereo not drawn), the GI50 is above 50 µM and the total growth inhibition concentration (TGI) was above 50 µM.
As for `NCC(=O)NS(=O)(=O)OC[C@H]1O[C@@H](n2cnc3c(N)ncnc32)[C@H](O)[C@@H]1O`, the GI50 is 0.368 µM and the total growth inhibition concentration (TGI) is 1.68 µM.
The like results for `Cc1c(C(=O)N/N=C/c2ccc(Cl)cc2)nnn1-c1ccnc2c(C(F)(F)F)cccc12` were, in that order, 5.01 µM and 17.3 µM.
The like results for `N#C/C(=C1C=C/C(=N/O)C(Br)=C/1)c1ccccc1` were, in that order, 2.25 µM and 13 µM.
Regarding `CN(C)CCNc1cc(-c2ccccc2)nc2ccccc12`, the GI50 is 6.02 µM and the TGI was found to be 32.9 µM.
Take `COc1cccc(/C=N/NC(=O)c2ccccc2Nc2ccnc(C(F)(F)F)c2)c1O`: the GI50 was 0.431 µM and the TGI was above 53.6 µM.
The matching figures for `CC[CH2][Pb]([CH2]CC)([CH2]CC)[O]C(=O)C(F)(F)F`: 0.176 µM and 0.404 µM.
`CCOC(=O)CCc1cc(=O)oc2cc(O)cc(O)c12` had a TGI above 100 µM.
For `COC(=O)c1cc2c3ccccc3[nH]c2c2ncccc12`, the GI50 was 68.9 µM and the total growth inhibition concentration (TGI) was above 100 µM.
As for `CNC(=O)OCc1c(COC(=O)NC)c(-c2ccc(Cl)c(Cl)c2)n2c1SCC2`, the TGI worked out at 50.7 µM.

The next assay relates to OVCAR-4 ovarian. The assay is described as follows: DTP human tumour cell line panel, 48 h.
On to `Cc1nc2cccc([N+](=O)[O-])c2c(NCCCN(C)C)c1C`, for which the TGI is above 100 µM.
With `Cn1c(N2NC(=O)C(N=Nc3ccc(S(N)(=O)=O)cc3)C2=O)nc(-c2ccco2)c(C#N)c1=O` (stereo not drawn), the GI50 is 8 µM and the concentration for total growth inhibition (TGI) was 23.9 µM.
The matching figures for `NCC(=O)NS(=O)(=O)OC[C@H]1O[C@@H](n2cnc3c(N)ncnc32)[C@H](O)[C@@H]1O`: 0.388 µM and 2.45 µM.
The like results for `Cc1c(C(=O)N/N=C/c2ccc(Cl)cc2)nnn1-c1ccnc2c(C(F)(F)F)cccc12` were, in that order, 2.9 µM and 6.08 µM.
Take `N#C/C(=C1C=C/C(=N/O)C(Br)=C/1)c1ccccc1`: the GI50 is 5.41 µM and the total growth inhibition concentration (TGI) came out at 37.9 µM.
As for `CN(C)CCNc1cc(-c2ccccc2)nc2ccccc12`, the GI50 was 7.45 µM and the TGI was 37.4 µM.
As to `COc1cccc(/C=N/NC(=O)c2ccccc2Nc2ccnc(C(F)(F)F)c2)c1O`, the 50% growth inhibitory concentration (GI50) was 0.0822 µM.
With `CC[CH2][Pb]([CH2]CC)([CH2]CC)[O]C(=O)C(F)(F)F`, the 50% growth inhibitory concentration (GI50) was 0.0385 µM and the concentration for total growth inhibition (TGI) worked out at 0.178 µM.
Turning to `CCOC(=O)CCc1cc(=O)oc2cc(O)cc(O)c12`, the concentration for total growth inhibition (TGI) is above 100 µM.
In the case of `COC(=O)c1cc2c3ccccc3[nH]c2c2ncccc12`, the GI50 is 57.3 µM and the TGI was above 100 µM.
As to `CNC(=O)OCc1c(COC(=O)NC)c(-c2ccc(Cl)c(Cl)c2)n2c1SCC2`, the GI50 was 3.59 µM and the TGI came to 25.5 µM.
In the case of `COc1ccc2c(c1)c(-c1nc(-c3cn(C)c4ncccc34)cs1)cn2CCCN1CCCCC1`, the GI50 was 1.87 µM and the total growth inhibition concentration (TGI) stood at 4.64 µM.

Another assay relates to MOLT-4 leukemia. The assay is described as follows: DTP human tumour cell line panel, 48 h.
Consider `Cc1nc2cccc([N+](=O)[O-])c2c(NCCCN(C)C)c1C`, for which the total growth inhibition concentration (TGI) was above 85.1 µM.
With `Cn1c(N2NC(=O)C(N=Nc3ccc(S(N)(=O)=O)cc3)C2=O)nc(-c2ccco2)c(C#N)c1=O` (stereo not drawn), the GI50 is 9.27 µM and the total growth inhibition concentration (TGI) came to 27.8 µM.
With `NCC(=O)NS(=O)(=O)OC[C@H]1O[C@@H](n2cnc3c(N)ncnc32)[C@H](O)[C@@H]1O`, the GI50 was 2.62 µM and the TGI is 8.86 µM.
The like results for `Cc1c(C(=O)N/N=C/c2ccc(Cl)cc2)nnn1-c1ccnc2c(C(F)(F)F)cccc12` were, in that order, 6.39 µM and 35.3 µM.
The matching figures for `N#C/C(=C1C=C/C(=N/O)C(Br)=C/1)c1ccccc1`: 2.93 µM and 11.5 µM.
Turning to `CN(C)CCNc1cc(-c2ccccc2)nc2ccccc12`, the GI50 is 3.27 µM and the TGI stood at 11.6 µM.
The like results for `COc1cccc(/C=N/NC(=O)c2ccccc2Nc2ccnc(C(F)(F)F)c2)c1O` were, in that order, 0.196 µM and 1.19 µM.
The like results for `CC[CH2][Pb]([CH2]CC)([CH2]CC)[O]C(=O)C(F)(F)F` were, in that order, 0.183 µM and 0.627 µM.
Turning to `CCOC(=O)CCc1cc(=O)oc2cc(O)cc(O)c12`, the TGI was above 100 µM.
Turning to `COC(=O)c1cc2c3ccccc3[nH]c2c2ncccc12`, the GI50 was above 100 µM and the TGI is above 100 µM.
For the compound `CNC(=O)OCc1c(COC(=O)NC)c(-c2ccc(Cl)c(Cl)c2)n2c1SCC2`, the TGI was determined as 47.3 µM.
With `COc1ccc2c(c1)c(-c1nc(-c3cn(C)c4ncccc34)cs1)cn2CCCN1CCCCC1`, the GI50 was 1.71 µM and the total growth inhibition concentration (TGI) turned out to be 3.36 µM.

The subject of a further assay is HL-60(TB) leukemia. As to the kind of experiment: DTP human tumour cell line panel, 48 h.
For the compound `Cc1nc2cccc([N+](=O)[O-])c2c(NCCCN(C)C)c1C`, the TGI was determined as 17.8 µM.
For `Cn1c(N2NC(=O)C(N=Nc3ccc(S(N)(=O)=O)cc3)C2=O)nc(-c2ccco2)c(C#N)c1=O` (stereo not drawn), the GI50 is 5.04 µM and the total growth inhibition concentration (TGI) came out at 18.4 µM.
For `NCC(=O)NS(=O)(=O)OC[C@H]1O[C@@H](n2cnc3c(N)ncnc32)[C@H](O)[C@@H]1O`, the GI50 was 2.78 µM and the concentration for total growth inhibition (TGI) was 6.95 µM.
Turning to `Cc1c(C(=O)N/N=C/c2ccc(Cl)cc2)nnn1-c1ccnc2c(C(F)(F)F)cccc12`, the GI50 was 6.39 µM and the TGI was determined as 48 µM.
The like results for `N#C/C(=C1C=C/C(=N/O)C(Br)=C/1)c1ccccc1` were, in that order, 2.16 µM and 6.31 µM.
For `CN(C)CCNc1cc(-c2ccccc2)nc2ccccc12`, the GI50 is 4.58 µM and the TGI was determined as 22.3 µM.
The matching figures for `COc1cccc(/C=N/NC(=O)c2ccccc2Nc2ccnc(C(F)(F)F)c2)c1O`: 0.215 µM and 0.677 µM.
The like results for `CC[CH2][Pb]([CH2]CC)([CH2]CC)[O]C(=O)C(F)(F)F` were, in that order, 0.0446 µM and 0.247 µM.
Compound `CCOC(=O)CCc1cc(=O)oc2cc(O)cc(O)c12` gave a concentration for total growth inhibition (TGI) above 100 µM.
For `COC(=O)c1cc2c3ccccc3[nH]c2c2ncccc12`, the GI50 is above 100 µM and the TGI is above 100 µM.
In the case of `CNC(=O)OCc1c(COC(=O)NC)c(-c2ccc(Cl)c(Cl)c2)n2c1SCC2`, the total growth inhibition concentration (TGI) is 25.4 µM.
With `COc1ccc2c(c1)c(-c1nc(-c3cn(C)c4ncccc34)cs1)cn2CCCN1CCCCC1`, the GI50 is 1.81 µM and the TGI came to 3.62 µM.
